Assay results: patent publication US9006185B2, “Use of cell-permeable peptide inhibitors of the JNK signal transduction pathway for the treatment of various diseases” (Xigen Inflammation Ltd., priority 2008, dated 2015)
Entries after “also recorded” stand apart in the source; their conditions may differ.

Legend:
[1] = system: TC-3 cells; experiment: Cellular import of fluorescein-labeled TAT and TAT-IB1(s) peptides; assay type: cell-based
Procedure: The ability of the L- and D-enantiomeric forms of TAT and TAT-IB1(s) peptides (“TAT-IB peptides”) to enter cells was evaluated. L-TAT, D-TAT, L-TAT-IB1(s), and D-TAT-IB1(s) peptides [SEQ ID NOs: 5, 6, 9 and 12, respectively] were labeled by N-terminal addition of a glycine residue conjugated to fluorescein. Labeled peptides (1 μM) were added to TC-3 cell cultures, which were maintained as described in Example 3. At predetermined times cells were washed with PBS and fixed for five minutes in ice-cold methanol-acetone (1:1) before being examined under a fluorescence microscope. Fluorescein-labeled BSA (1 μM, 12 moles/mole BSA) was used as a control.
Little to no signal was present at 48 hours.
Fluorescent signals from these all-D retro-inverso peptides were still very strong 1 week later, and the signal was only slightly diminished at 2 weeks post treatment.

[2] = system: TC-3 cells; experiment: IL-1 induced pancreatic beta-cell death, peptide treatment; assay type: cell-based; details: one single addition 1 μM, 15 days of incubation with IL-1
Procedure: Inhibition of IL-1 induced pancreatic beta-cell death by the D-TAT-IB1(s) peptide was analyzed. TC-3 cells were incubated as described above for 30 minutes with one single addition of the indicated peptides (1, μM), then IL-1 (10 ng/ml) was added.
Apoptotic cells were then counted after two days of incubation with IL-1 by use of Propidium Iodide and Hoechst 33342 nuclear staining. A minimum of 1,000 cells were counted for each experiment. Standard Error of the Means (SEM) are indicated, n=5.
Long term inhibition of IL-1P induced cell-death by the D-TAT-IB1 peptide was also analyzed. TC-3 cells were incubated as above for 30 minutes with one single addition of the indicated peptides (1 μM), then IL-1 (10 ng/ml) was added, followed by addition of the cytokine every two days. Apoptotic cells were then counted after 15 days of incubation with IL-1 by use of propidium iodide and Hoechst 33342 nuclear staining. […] A minimum of 1.000 cells were counted for each experiment.

[3] = system: Varicella-Zoster Virus (VZV); experiment: Plaque reduction assay against VZV in HFFs; assay type: cell-based, human; details: for Spread of VZV (pfu) ± SD: 24 hours
Procedure: Additionally, inhibitors of cell functions may be toxic to cells, which could non-specifically prevent virus growth. […] Since this may falsify the results, a cytotoxicity assay was carried out first, determining the tolerance of the cultured cells to the test compound. Subsequently, a plaque reduction assay was carried out and then activity of the JNK inhibitor peptide XG-102 (SEQ ID NO: 11) was tested with respect to […] (VZV) in infected cells. • A) Determination of the Cytotoxicity of all-D Retro-Inverso Ib(s) Peptides: • For determination of toxicity, cultured cells (human foreskin fibroblasts (HFFs)) were seeded in 96-well tissue culture plates. Medium containing DMSO (same level as 5 μM XG-102 (SEQ ID NO: 11)), or XG-102 (SEQ ID NO: 11) was added at several concentrations of (1, 2, and 5 μM) for 24 h. Subsequently, a Neutral Red assay was carried out. Neutral Red colorimetric assays for cytotoxicity assays (in sets of 6 replicates) were used to set the maximum dose for subsequent efficacy assays (as performed in Taylor et al, 2004, J. Virology, 78:2853-2862). Live cells absorb Neutral Red and, accordingly, the level of absorbance is a quantitative measure of cell viability and number. Neutral Red uptake is directly proportional to the number of cells and also reflects normal endocytosis. Therefore, a brief pulse of Neutral Red was added to the medium at 0 or 24 hours. After fixation and extraction, dye was added and the amount of dye in each sample was measured in an ELISA plate reader at 540 nm (see FIG. 4). […] In this plaque reduction assay, confluent human foreskin fibroblasts (HFFs) in 24-well plates were inoculated with VZV-infected HFFs at a ratio of 1:100 (multiplicity of infection MOI=0.01) and adsorbed to the cells for 2 hours. The excess virus was washed out, and medium containing 0 (DMSO only), 0.5, 1, or 2 μM XG-102 (SEQ ID NO: 11) was added. One sample was taken at this time to measure the initial level of infection; wherein each well contained ˜150 pfu. After 24 hours, duplicate wells were trypsinized, and then the cell suspensions were titered on MeWo cell monolayers in triplicate to determine the number of VZV-infected cells in each sample. During unrestricted growth, VZV usually increases by 10-fold over 1 day because it propagates by cell-cell spread. […]

[4] = system: Primary cultured macrophages; assay type: cell-based
Procedure: FIG. 24 Primary cultured macrophages were incubated with XG-102 (SEQ ID NO: 11) and extensively washed.

[5] = system: THP-1 cells; experiment: LPS-induced cytokine and chemokine release in THP-1 cells; assay type: cell-based
[6] = system: Jurkat cells; experiment: PMA & ionomycin-induced cytokine production in Jurkat cells; assay type: cell-based
[7] = system: murine T cells; experiment: PMA & ionomycin-induced cytokine production in murine T cells; assay type: cell-based

CC(C)C[C@@H](NC(=O)[C@@H](Cc1ccccc1)NC(=O)[C@H]1CCCN1C(=O)[C@@H](CCC(N)=O)NC(=O)[C@H](NC(=O)[C@H]1CCCN1C(=O)[C@@H](CCCNC(=N)N)NC(=O)[C@@H](CO)NC(=O)[C@@H](CCC(N)=O)NC(=O)[C@H](N)CC(=O)O)C(C)C)C(=O)N[C@H](CC(N)=O)C(=O)N[C@H](CC(C)C)C(=O)N[C@@H](C(=O)N[C@@H](C(=O)N1CCC[C@@H]1C(=O)N[C@H](CCCNC(=N)N)C(=O)N[C@H](CCCCN)C(=O)N1CCC[C@@H]1C(=O)N[C@H](CCCNC(=N)N)C(=O)N1CCC[C@@H]1C(=O)N1CCC[C@@H]1C(=O)N[C@H](CCCNC(=N)N)C(=O)N[C@H](CCCNC(=N)N)C(=O)N[C@H](CCCNC(=N)N)C(=O)N[C@H](CCC(N)=O)C(=O)N[C@H](CCCNC(=N)N)C(=O)N[C@H](CCCNC(=N)N)C(=O)N[C@H](CCCCN)C(=O)N[C@H](CCCCN)C(=O)N[C@H](CCCNC(=N)N)C(=O)NCC(=O)O)[C@H](C)O)[C@H](C)O [XG-102]
entry into cells (fluorescence microscopy) [1]: efficiently and rapidly (less than five minutes) entered cells
stability inside the cells [1]: extremely stable inside the cells
long term protection from IL-1 induced cell death [2]: able to confer long term (15 day) protection
Spread of VZV (pfu) ± SD ([3]; 0.5 μM): 260 ± 53 pfu
Spread of VZV (pfu) ± SD ([3]; 1.0 μM): 212 ± 48 pfu
Spread of VZV (pfu) ± SD ([3]; 2.0 μM): 312 ± 79 pfu
antiviral effect against VZV ([3]; 0.5, 1, 2 μM): potent inhibitor of Varizella Zoster Virus (VZV); also recorded: strong antiviral effect at all the concentrations tested
VZV yields ([3]; all the concentrations tested (0.5-2 μM)): 200-300 pfu
incorporation into primary macrophages [4]: strongly incorporated into primary macrophages
LPS-induced TNFa, IL-6 and MCP-1 release [5]: reducing LPS-induced TNFa, IL-6 and MCP-1 release in THP-1 cells
PMA & ionomycin-induced IFNg, IL-6 and IL-2 production [6]: inhibits cytokine release in both myeloid and lymphoid cell lines
PMA & ionomycin-induced TNFa and IFNg production [7]: also inhibits cytokine release in primary lymphoid and myeloid cells
